Results published in US20150225377A1, “VEGFR3 INHIBITORS” (CANCER THERAPEUTICS CRC PTY LIMITED, priority 2012, published 2015).

Target: T1, VEGFR3 cytoplasmic domain (Homo sapiens, UniProt P35916)
T1 construct: VEGFR3 cytoplasmic domain (amino acids 798-1298) was purchased as N-terminal GST-fusion protein; GST (N); purchased
Assay: VEGFR3 biochemical assay (AlphaScreen)
Settings: GST-VEGFR3 cytoplasmic domain, 500 μM ATP (modified form: His-fusion, 1 μM ATP)
Procedure: Compounds of the invention may be tested for in vitro activity in the following assay: A biotin labelled peptide is used as substrate (amino acid sequence: Biotin-[…]NH2). VEGFR3 cytoplasmic domain (amino acids 798-1298) was purchased as N-terminal GST-fusion protein (“the enzyme”). The 15 μL assay reactions are run in Greiner brand white 384-well low volume plates. All reactions contained 10 mM HEPES pH 7.4, 10 mM MgCl2, 0.01% (v/v) Tween-20, 50 μM Na3VO4, 0.01% (w/v) albumin from chicken egg white, 1 mM Dithiothreitol, 111 nM peptide substrate, 500 μM ATP, and 3.8 ng/reaction enzyme, with the enzyme being omitted from negative control reactions. Compounds were added in a volume of […] from dilution series prepared in DMSO, positive and negative control reactions receiving the same volume DMSO without compound. The plates were sealed with adhesive seals and incubated for 90 minutes at 30 degree Celsius. The reactions were stopped with the detection reagents added at the same time as follows: Product formation was quantified as amplified luminescence between PerkinElmer AlphaScreen™ beads, using Streptavidin-coated donor and anti-phosphotyrosine (P-Tyr-100) acceptor beads. To each reaction, 5 μL containing 10 mM HEPES pH 7.4, 25 mM NaCl, 100 mM EDTA, 0.01% (v/v) Tween-20, and 6.25 μg/mL of each bead type were added. Plates were incubated for 6 hours before being read on a PerkinElmer EnVision™ plate reader in HTS Alphascreen™ mode. IC50 values were obtained by calculating percent inhibition (% I) for each reaction relative to controls on the same plate (% I=(I-CN)/(CP-CN) where CN/CP are the averages of the negative/positive reactions, respectively), then fitting the % I data vs. compound concentration [I] to % I=(A+((B−A)/(1+((C/[I])̂D)))) where A is the lower asymptote, B is the upper asymptote, C is the IC50 value, and D is the slope factor.
The above assay was also run in a modified form in some cases (indicated below with *). In these cases, VEGFR3 cytoplasmic domain (amino acids 818-1177, lacking 949-1002 of UniProt accession number P35916) was expressed and purified as N-terminal Hexa-His-fusion protein (“the enzyme”), rather than using the N-terminal GST-fusion protein. The assay conditions were the same as above but with 1 μM ATP and 8 ng/reaction of the enzyme.

T1 sequence (P35916 798-1298 isoform P35916-1): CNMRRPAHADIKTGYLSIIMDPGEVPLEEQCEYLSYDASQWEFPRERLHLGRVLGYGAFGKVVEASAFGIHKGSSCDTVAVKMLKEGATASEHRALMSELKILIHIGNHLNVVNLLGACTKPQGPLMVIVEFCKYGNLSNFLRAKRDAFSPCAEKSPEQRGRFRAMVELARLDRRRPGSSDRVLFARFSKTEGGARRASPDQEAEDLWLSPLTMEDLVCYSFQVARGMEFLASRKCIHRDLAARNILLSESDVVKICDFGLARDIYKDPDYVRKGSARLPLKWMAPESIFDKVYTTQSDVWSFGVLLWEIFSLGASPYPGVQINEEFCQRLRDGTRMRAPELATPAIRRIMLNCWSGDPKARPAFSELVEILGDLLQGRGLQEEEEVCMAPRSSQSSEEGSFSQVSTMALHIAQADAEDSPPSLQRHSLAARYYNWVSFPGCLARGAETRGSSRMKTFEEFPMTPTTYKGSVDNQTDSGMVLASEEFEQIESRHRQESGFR

SMILES | IC50 [nM]
NC(=O)Cc1ccccc1CCc1ccnc(Nc2ccc(N3CCNCC3)cc2)n1 [Compound 1, 2-(2-(2-(2-((4-(piperazin-1-yl)phenyl)amino)pyrimidin-4-yl)ethyl)phenyl)acetamide] | 161
NC(=O)Cc1ccccc1CCc1nc(Nc2ccc(C3CCNCC3)c(F)c2)ncc1C(F)(F)F [Compound 7, 2-(2-(2-(2-((3-Fluoro-4-(piperidin-4-yl)phenyl)amino)-5-(trifluoromethyl)pyrimidin-4-yl)ethyl)phenyl)acetamide] | 40
CN1CCC(c2ccc(Nc3ncc(C(F)(F)F)c(CCc4ccccc4CC(N)=O)n3)cc2F)CC1 [Compound 8, 2-(2-(2-(2-((3-fluoro-4-(1-methylpiperidin-4-yl)phenyl)amino)-5-(trifluoromethyl)pyrimidin-4-yl)ethyl)phenyl)acetamide] | 34
CN1CCC(c2ccc(Nc3ncc(C(F)(F)F)c(CCc4ccc(F)cc4CC(N)=O)n3)cc2)CC1 [Compound 10, 2-(5-fluoro-2-(2-(2-((4-(1-methylpiperidin-4-yl)phenyl)amino)-5-(trifluoromethyl)pyrimidin-4-yl)ethyl)phenyl)acetamide] | 76
CN1CCC(c2ccc(Nc3ncc(C(F)(F)F)c(CCc4ccccc4CC(N)=O)n3)cn2)CC1 [Compound 14, 2-(2-(2-(2-((6-(1-methylpiperidin-4-yl)pyridin-3-yl)amino)-5-(trifluoromethyl)pyrimidin-4-yl)ethyl)phenyl)acetamide] | 81
NC(=O)Cc1ccc(F)cc1CCc1nc(Nc2ccc(C3CCNCC3)cc2)ncc1C(F)(F)F [Compound 15, 2-(4-fluoro-2-(2-(2-((4-(piperidin-4-yl)phenyl)amino)-5-(trifluoromethyl)pyrimidin-4-yl)ethyl)phenyl)acetamide] | 31
CN1CCC(c2ccc(Nc3ncc(C(F)(F)F)c(CCc4cc(C(F)(F)F)ccc4CC(N)=O)n3)cc2)CC1 [Compound 17, 2-(2-(2-(2-((4-(1-methylpiperidin-4-yl)phenyl)amino)-5-(trifluoromethyl)pyrimidin-4-yl)ethyl)-4-(trifluoromethyl)phenyl)acetamide] | 67
NC(=O)Cc1ccccc1CCc1nc(Nc2ccc(C3CNC3)cc2)ncc1C(F)(F)F [Compound 20, 2-(2-(2-(2-((4-(azetidin-3-yl)phenyl)amino)-5-(trifluoromethyl)pyrimidin-4-yl)ethyl)phenyl)acetamide] | 37
COc1cnc(Nc2ccc(C3CCNCC3)cc2)nc1CCc1ccccc1CC(N)=O [Compound 23, 2-(2-(2-(5-methoxy-2-((4-(piperidin-4-yl)phenyl)amino)pyrimidin-4-yl)ethyl)phenyl)acetamide] | 72
NC(=O)Cc1cc(C(F)(F)F)ccc1CCc1nc(Nc2ccc(C3CCNCC3)cc2)ncc1C(F)(F)F [Compound 25, 2-(2-(2-(2-((4-(piperidin-4-yl)phenyl)amino)-5-(trifluoromethyl)pyrimidin-4-yl)ethyl)-5-(trifluoromethyl)phenyl)acetamide] | 278
Cc1cnc(Nc2ccc(CN)cc2)nc1CCc1ccccc1CC(N)=O [Compound 27, 2-(2-(2-(2-((4-(aminomethyl)phenyl)amino)-5-methylpyrimidin-4-yl)ethyl)phenyl)acetamide] | 118
COC(=O)NC1(c2ccc(Nc3ncc(C)c(CCc4ccccc4CC(N)=O)n3)cc2)CCC1 [Compound 29, methyl 1-(4-(4-(2-(2-amino-2-oxoethyl)phenethyl)-5-methylpyrimidin-2-ylamino)phenyl)cyclobutylcarbamate] | 17
Cc1cnc(Nc2cnn(C3CNC3)c2)nc1CCc1ccccc1CC(N)=O [Compound 30, 2-(2-(2-(2-((1-(azetidin-3-yl)-^1H-pyrazol-4-yl)amino)-5-methylpyrimidin-4-yl)ethyl)phenyl)acetamide] | 9
Cc1cnc(Nc2ccc(C3CNC3)cc2)nc1CCc1ccccc1CC(N)=O [Compound 32, 2-(2-(2-(2-((4-(azetidin-3-yl)phenyl)amino)-5-methylpyrimidin-4-yl)ethyl)phenyl)acetamide] | 52
